The test system of data set [1] is patients with stable coronary disease. Description: LoDoCo Trial, colchicine 0.5 mg/day added to standard secondary prevention. Type of data set: in vivo, human. As for the experimental part: This study is described in PCT/AU2013/001261 and is hereby incorporated in its entirety by reference.
All outcomes were evaluated by an experienced adjudicator blinded to the treatment allocation.
Patients with a history of bypass surgery were only eligible if they had undergone bypass surgery more than 10 years before, or had angiographic evidence of graft failure or had undergone stenting since their bypass surgery. All patients signed informed consent before randomization.
The randomization sequence was computer generated, kept concealed from the investigators at all times and was managed by a research assistant who had no involvement in the evaluation or management of study patients. Once the assistant received the consent form, the patients' demographic data were entered into the data base and the investigators and patients were advised in writing of the treatment group to which the patient had been assigned. […] Patients who were intolerant to therapy remained in the study, and were followed in the usual manner and included in the primary intention to treat analysis.
The drug was dispensed by their usual chemist, and if requested, patients were reimbursed for the cost of these scripts. All other treatments were continued as usual.
Patient compliance with treatment and outcome data were collected at routine follow up visits and at the time of any unplanned hospital admission. An acute coronary syndrome (ACS) was defined as either (a) Acute Myocardial Infarction (AMI), as evidenced by acute ischemic chest pain associated with a rise in serum troponin above the upper limit of normal or (b) Unstable Angina (UA), as evidenced by a recent acceleration of the patient's angina unassociated with a rise in serum troponin but associated with angiographic evidence of a change in the patient's coronary anatomy. (Unstable Angina Braunwald classification types IB and IIB). The ACS was characterized as being stent-related if there was evidence of significant in-stent stenosis or acute stent thrombosis. Out of Hospital Cardiac Arrest was defined as either a sudden death as evidenced on the patient's death certificate, or a non-fatal out of hospital cardiac arrest, defined as a recovery from sudden collapse associated with documented asystole, ventricular tachycardia or ventricular fibrillation. Noncardioembolic ischemic stroke was defined as CT or MRI proven ischemic stroke adjudged by the treating neurologist as not being due to atrial fibrillation or intracranial hemorrhage.
The primary efficacy outcome was the composite, ACS, fatal or non-fatal out of hospital cardiac arrest or non-cardio-embolic ischemic stroke. Secondary outcomes were (a) individual components of the primary outcome, and (b) the components of ACS unrelated to stent disease.
The pre-specified study duration was a minimum follow up of two years in all patients. Accordingly the study was closed on May 31, 2012. During May, all living patients were contacted by phone to collect compliance and outcome data from the last date of follow-up. Final outcome data were available in all patients and no patients were lost to follow up.
Summary statistics, including mean and standard deviation were calculated for all baseline characteristics by treatment arm. All time to event outcomes were calculated in days by subtracting the date of randomization from either: (1) the date of event or death; or (2) the trial termination date for those patients not experiencing the defined event. […]

Data set [2] has as its system patients with a first episode of recurrent pericarditis. Particulars: conventional treatment with aspirin plus colchicine 1.0-2.0 mg first day then 0.5-1.0 mg/d for 6 months; cited from earlier work.

In the case of `COc1cc2c(c(OC)c1OC)-c1ccc(OC)c(=O)cc1[C@@H](NC(C)=O)CC2` [colchicine, N[5,6,7,9-tetrahydro-1,2,3,10-tetratmethoxy 9-oxobenzo[a]heptalen-7-yl],(S)-acetamide], the “number needed to treat, primary outcome” value in data set [1] (colchicine 0.5 mg/day vs control) is recorded as 11. Besides, in data set [1] (colchicine group (n=282), all of non-cardiac causes), the patients who died is given as 4 patients. In addition, the “patients reporting early intolerance due to gastrointestinal side effects” value in data set [1] (of 282 randomized to colchicine 0.5 mg/day) amounted to 11%. The “patients with events, on-treatment analysis” value in data set [1] (patients compliant and tolerant to therapy beyond the first month) was 4.5%. Further, the “Out of hospital cardiac arrest and non-cardio-embolic ischemic stroke” value in data set [1] (treatment group vs control) was “also reduced in the treatment group”. For the same compound, in data set [2], the “recurrence rate, actuarial rate at 18 months” value is listed as 24.0%.

Values taken from US10130585B2, “Methods of treating and/or preventing cardiovascular disease” (Murray and Poole Enterprises Limited, priority 2013, dated 2018).
